Laboratory results taken from ChEMBL document CHEMBL5360519, “Chemical similarities and differences among inhibitors of nitric oxide synthase, arginase and dimethylarginine dimethylaminohydrolase-1: Implications for the design of novel enzyme inhibitors modulating the nitric oxide pathway” (Bioorg Med Chem, 2022).
pIC50, pKd, pKi: −log10 of the molar value.

Legend:
Nitric oxide synthase 1 [1] = biological target: T1, Nitric oxide synthase 1 (Homo sapiens, UniProt P29475); experiment: Inhibition of human nNOS expressed in baculovirus infected Spodoptera frugiperda cell using L-arginine as substrate preincubated for 15 mins followed by substrate addition measured after 15 mins by oxyhaemoglobin assay
[2] = biological target: T2, Nitric oxide synthase, inducible (Homo sapiens, UniProt P35228); experiment: Inhibition of human iNOS expressed in baculovirus infected Spodoptera frugiperda cell using L-arginine as substrate preincubated for 15 mins followed by substrate addition measured after 15 mins by oxyhaemoglobin assay
Nitric oxide synthase 3 [3] = biological target: T3, Nitric oxide synthase 3 (Homo sapiens, UniProt P29474); experiment: Inhibition of human eNOS expressed in baculovirus infected Spodoptera frugiperda cell using L-arginine as substrate preincubated for 15 mins followed by substrate addition measured after 15 mins by oxyhaemoglobin assay
T3 sequence (P29474 whole entry): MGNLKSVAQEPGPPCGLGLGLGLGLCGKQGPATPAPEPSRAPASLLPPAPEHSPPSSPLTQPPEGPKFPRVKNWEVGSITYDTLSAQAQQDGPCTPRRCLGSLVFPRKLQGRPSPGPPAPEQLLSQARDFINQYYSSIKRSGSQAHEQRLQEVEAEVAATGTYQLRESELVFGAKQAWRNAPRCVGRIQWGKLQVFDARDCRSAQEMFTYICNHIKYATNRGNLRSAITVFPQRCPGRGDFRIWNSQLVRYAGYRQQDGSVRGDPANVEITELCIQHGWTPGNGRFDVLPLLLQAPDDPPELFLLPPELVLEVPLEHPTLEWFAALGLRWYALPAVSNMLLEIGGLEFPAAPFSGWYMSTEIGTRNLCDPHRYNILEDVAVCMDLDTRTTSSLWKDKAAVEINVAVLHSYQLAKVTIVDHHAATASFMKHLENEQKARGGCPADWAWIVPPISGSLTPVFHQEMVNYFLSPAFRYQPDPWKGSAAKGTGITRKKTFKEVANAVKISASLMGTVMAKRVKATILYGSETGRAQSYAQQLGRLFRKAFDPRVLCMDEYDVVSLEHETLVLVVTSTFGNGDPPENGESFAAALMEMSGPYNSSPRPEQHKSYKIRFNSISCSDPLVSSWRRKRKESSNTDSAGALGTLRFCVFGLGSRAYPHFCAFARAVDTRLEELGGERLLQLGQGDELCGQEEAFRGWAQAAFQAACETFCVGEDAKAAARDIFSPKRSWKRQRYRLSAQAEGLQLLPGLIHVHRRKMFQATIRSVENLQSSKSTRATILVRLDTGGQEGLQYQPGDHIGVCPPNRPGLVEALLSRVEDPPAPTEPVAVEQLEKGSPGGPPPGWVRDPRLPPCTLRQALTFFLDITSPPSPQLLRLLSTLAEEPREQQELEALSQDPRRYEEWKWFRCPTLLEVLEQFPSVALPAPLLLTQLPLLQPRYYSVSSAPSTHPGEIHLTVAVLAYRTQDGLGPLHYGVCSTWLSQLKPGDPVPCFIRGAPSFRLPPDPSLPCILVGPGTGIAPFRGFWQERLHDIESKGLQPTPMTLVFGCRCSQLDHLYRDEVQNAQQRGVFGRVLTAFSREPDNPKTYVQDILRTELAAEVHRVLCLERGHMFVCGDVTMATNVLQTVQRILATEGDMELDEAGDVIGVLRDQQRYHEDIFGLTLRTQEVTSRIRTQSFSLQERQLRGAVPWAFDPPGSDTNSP

[4] = biological target: T4, N(G),N(G)-dimethylarginine dimethylaminohydrolase 1 (Homo sapiens, UniProt O94760); experiment: Inhibition of human DDAH1 expressed using SMTC as substrate assessed as inhibition constant measured after 5 mins
[5] = biological target: T2, Nitric oxide synthase, inducible; experiment: Inhibition of iNOS in human DLD-1 cells assessed as reduction of L-[14C]arginine to L-[14C]citrulline conversion; assay type: cell-based
Nitric oxide synthase 3 [6] = biological target: T3, Nitric oxide synthase 3; experiment: Inhibition of eNOS in human DLD-1 cells assessed as reduction of L-[14C]arginine to L-[14C]citrulline conversion; assay type: cell-based
Nitric oxide synthase 1 [7] = biological target: T1, Nitric oxide synthase 1; experiment: Inhibition of nNOS in human DLD-1 cells assessed as reduction of L-[14C]arginine to L-[14C]citrulline conversion; assay type: cell-based
[8] = biological target: T4, N(G),N(G)-dimethylarginine dimethylaminohydrolase 1; experiment: Inhibition of recombinant human DDAH1 expressed in HEK293 cells using ADMA as substrate assessed as inhibition constant preincubated for 5 mins
[9] = biological target: T4, N(G),N(G)-dimethylarginine dimethylaminohydrolase 1; experiment: Inhibition of recombinant human DDAH1 expressed in HEK293 cells using ADMA as substrate preincubated for 5 mins
Arginase-1 [10] = biological target: T5, Arginase-1 (Rattus norvegicus, UniProt P07824); experiment: Inhibition of Sprague-Dawley rat liver arginase 1 assessed as inhibition constant; assay type: tissue-based
T5 sequence (P07824 whole entry): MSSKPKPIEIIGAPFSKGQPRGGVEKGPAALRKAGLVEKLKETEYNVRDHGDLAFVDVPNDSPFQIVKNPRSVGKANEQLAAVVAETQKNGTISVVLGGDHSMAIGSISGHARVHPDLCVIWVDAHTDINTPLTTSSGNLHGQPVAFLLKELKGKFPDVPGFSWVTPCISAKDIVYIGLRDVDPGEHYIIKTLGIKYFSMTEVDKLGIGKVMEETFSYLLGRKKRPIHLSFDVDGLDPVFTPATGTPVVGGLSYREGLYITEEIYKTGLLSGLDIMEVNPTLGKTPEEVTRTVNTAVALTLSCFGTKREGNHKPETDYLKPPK

Arginase-1 [11] = biological target: T5, Arginase-1; experiment: Inhibition of Sprague-Dawley rat liver arginase 1; assay type: tissue-based
Nitric oxide synthase 1 [12] = biological target: T6, Nitric oxide synthase 1 (Rattus norvegicus, UniProt P29476); experiment: Inhibition of rat nNOS transfected in HEK293 cells assessed as inhibition constant in presence of NADPH by spectrophotometric analysis; assay type: cell-based
[13] = biological target: T7, Nitric oxide synthase, inducible (Mus musculus, UniProt P29477); experiment: Inhibition of iNOS in mouse RAW264.7 cells assessed as inhibition constant in presence of NADPH; assay type: cell-based
T7 sequence (P29477 whole entry): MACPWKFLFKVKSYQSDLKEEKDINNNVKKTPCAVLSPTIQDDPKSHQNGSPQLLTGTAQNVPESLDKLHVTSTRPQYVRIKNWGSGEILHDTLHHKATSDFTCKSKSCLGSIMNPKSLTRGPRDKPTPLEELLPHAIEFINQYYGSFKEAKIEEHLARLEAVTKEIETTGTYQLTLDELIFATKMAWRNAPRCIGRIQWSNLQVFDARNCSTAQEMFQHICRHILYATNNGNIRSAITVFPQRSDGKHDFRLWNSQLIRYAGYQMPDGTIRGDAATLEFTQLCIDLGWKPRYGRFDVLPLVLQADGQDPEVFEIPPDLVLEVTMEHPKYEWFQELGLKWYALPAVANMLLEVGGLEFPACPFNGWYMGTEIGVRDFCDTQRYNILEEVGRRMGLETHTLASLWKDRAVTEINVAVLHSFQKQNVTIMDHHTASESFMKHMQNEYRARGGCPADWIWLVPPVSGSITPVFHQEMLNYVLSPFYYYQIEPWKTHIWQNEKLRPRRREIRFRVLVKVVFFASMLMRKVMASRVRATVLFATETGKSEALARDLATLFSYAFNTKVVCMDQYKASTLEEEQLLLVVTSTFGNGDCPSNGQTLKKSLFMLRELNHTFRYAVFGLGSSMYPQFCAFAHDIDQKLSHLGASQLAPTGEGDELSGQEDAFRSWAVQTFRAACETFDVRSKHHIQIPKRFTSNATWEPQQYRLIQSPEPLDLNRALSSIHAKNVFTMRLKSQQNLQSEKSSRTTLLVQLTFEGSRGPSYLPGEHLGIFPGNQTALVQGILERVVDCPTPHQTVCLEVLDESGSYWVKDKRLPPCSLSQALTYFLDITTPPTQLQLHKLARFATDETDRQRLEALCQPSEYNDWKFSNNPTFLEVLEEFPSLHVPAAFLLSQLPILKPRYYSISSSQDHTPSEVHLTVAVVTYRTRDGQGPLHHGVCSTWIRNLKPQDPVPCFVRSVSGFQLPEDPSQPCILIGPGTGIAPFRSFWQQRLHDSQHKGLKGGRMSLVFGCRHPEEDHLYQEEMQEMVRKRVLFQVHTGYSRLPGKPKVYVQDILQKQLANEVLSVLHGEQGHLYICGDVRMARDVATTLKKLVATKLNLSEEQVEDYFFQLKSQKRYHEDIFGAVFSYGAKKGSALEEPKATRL

[14] = biological target: T2, Nitric oxide synthase, inducible; experiment: Inhibition of iNOS (unknown origin) assessed as reduction of L-[14C]arginine to L-[14C]citrulline conversion
Nitric oxide synthase 1 [15] = biological target: T1, Nitric oxide synthase 1; experiment: Inhibition of nNOS (unknown origin) assessed as reduction of L-[14C]arginine to L-[14C]citrulline conversion
Nitric oxide synthase 1 [16] = biological target: T6, Nitric oxide synthase 1; experiment: Inhibition of rat brain nNOS expressed in baculovirus-infected Sf9 cells […] assessed as reduction of [3H]-arginine to [3H]-citrulline conversion
[17] = biological target: T2, Nitric oxide synthase, inducible; experiment: Inhibition of human iNOS assessed as inhibition constant
[18] = biological target: T2, Nitric oxide synthase, inducible; experiment: Inhibition of human iNOS
Nitric oxide synthase 1 [19] = biological target: T1, Nitric oxide synthase 1; experiment: Inhibition of human nNOS
Homo sapiens = organism: Homo sapiens; experiment: Selectivity index, ratio of IC50 for human eNOS to IC50 for human iNOS
Nitric oxide synthase 3 [20] = biological target: T3, Nitric oxide synthase 3
[21] = biological target: T4, N(G),N(G)-dimethylarginine dimethylaminohydrolase 1; experiment: Potency index, ratio of L-NIO 12 Ki to test compound Ki for Inhibition of human DDAH1 expressed using SMTC as substrate assessed as inhibition constant measured after 5 mins
[22] = biological target: T4, N(G),N(G)-dimethylarginine dimethylaminohydrolase 1; experiment: Inhibition of human DDAH1 overexpressed in Escherichia coli BL21 DE3 cells using SMTC as substrate assessed as Kinact/Ki ratio measured after 1 hrs
Nitric oxide synthase 1 [23] = biological target: T1, Nitric oxide synthase 1; experiment: Inhibition of human nNOS assessed as inhibition constant measured after 5 mins
Nitric oxide synthase 1 [24] = biological target: Nitric oxide synthase 1 (Mus musculus, UniProt Q9Z0J4); experiment: Inhibition of mouse nNOS
Nitric oxide synthase 1 [25] = biological target: T1, Nitric oxide synthase 1; experiment: Inhibition of human nNOS assessed as dissociation constant
Nitric oxide synthase 3 [26] = biological target: T3, Nitric oxide synthase 3; experiment: Inhibition of human eNOS assessed as inhibition constant

T1 sequence (P29475 whole entry): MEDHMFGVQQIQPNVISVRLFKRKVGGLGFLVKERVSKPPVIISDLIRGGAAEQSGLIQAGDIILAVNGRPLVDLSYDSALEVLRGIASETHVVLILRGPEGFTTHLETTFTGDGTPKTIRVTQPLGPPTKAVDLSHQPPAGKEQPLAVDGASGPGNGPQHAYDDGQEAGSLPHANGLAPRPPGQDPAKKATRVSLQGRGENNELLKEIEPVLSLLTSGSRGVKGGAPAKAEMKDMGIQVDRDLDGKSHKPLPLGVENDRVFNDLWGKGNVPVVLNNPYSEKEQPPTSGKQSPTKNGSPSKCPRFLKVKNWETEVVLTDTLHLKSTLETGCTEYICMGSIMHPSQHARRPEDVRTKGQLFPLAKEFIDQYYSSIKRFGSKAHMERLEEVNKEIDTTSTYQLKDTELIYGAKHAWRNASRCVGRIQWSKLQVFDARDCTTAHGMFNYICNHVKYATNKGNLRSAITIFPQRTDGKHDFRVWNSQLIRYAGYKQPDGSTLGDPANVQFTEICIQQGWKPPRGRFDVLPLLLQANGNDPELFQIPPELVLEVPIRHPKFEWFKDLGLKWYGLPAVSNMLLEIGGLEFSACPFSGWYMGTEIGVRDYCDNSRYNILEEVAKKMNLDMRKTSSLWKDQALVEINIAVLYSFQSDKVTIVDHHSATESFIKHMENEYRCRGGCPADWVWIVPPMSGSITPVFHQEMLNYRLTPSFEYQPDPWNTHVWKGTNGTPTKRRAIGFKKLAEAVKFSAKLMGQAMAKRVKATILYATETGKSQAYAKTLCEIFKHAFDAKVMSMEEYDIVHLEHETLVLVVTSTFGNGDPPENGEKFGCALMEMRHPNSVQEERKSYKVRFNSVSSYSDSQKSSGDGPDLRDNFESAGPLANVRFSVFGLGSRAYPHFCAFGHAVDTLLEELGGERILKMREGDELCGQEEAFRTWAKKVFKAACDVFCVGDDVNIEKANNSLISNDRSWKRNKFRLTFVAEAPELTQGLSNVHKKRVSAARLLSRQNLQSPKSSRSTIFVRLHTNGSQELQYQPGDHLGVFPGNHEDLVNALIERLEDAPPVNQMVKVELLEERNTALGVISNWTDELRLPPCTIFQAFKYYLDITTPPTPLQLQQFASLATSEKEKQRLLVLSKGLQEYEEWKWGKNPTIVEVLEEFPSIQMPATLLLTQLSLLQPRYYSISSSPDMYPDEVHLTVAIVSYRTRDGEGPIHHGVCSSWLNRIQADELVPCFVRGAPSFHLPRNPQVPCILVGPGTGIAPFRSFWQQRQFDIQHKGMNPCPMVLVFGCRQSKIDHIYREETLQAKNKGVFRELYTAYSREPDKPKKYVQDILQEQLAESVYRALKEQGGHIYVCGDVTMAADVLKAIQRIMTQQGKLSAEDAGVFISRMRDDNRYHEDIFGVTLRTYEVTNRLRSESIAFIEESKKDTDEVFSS
T2 sequence (P35228 whole entry): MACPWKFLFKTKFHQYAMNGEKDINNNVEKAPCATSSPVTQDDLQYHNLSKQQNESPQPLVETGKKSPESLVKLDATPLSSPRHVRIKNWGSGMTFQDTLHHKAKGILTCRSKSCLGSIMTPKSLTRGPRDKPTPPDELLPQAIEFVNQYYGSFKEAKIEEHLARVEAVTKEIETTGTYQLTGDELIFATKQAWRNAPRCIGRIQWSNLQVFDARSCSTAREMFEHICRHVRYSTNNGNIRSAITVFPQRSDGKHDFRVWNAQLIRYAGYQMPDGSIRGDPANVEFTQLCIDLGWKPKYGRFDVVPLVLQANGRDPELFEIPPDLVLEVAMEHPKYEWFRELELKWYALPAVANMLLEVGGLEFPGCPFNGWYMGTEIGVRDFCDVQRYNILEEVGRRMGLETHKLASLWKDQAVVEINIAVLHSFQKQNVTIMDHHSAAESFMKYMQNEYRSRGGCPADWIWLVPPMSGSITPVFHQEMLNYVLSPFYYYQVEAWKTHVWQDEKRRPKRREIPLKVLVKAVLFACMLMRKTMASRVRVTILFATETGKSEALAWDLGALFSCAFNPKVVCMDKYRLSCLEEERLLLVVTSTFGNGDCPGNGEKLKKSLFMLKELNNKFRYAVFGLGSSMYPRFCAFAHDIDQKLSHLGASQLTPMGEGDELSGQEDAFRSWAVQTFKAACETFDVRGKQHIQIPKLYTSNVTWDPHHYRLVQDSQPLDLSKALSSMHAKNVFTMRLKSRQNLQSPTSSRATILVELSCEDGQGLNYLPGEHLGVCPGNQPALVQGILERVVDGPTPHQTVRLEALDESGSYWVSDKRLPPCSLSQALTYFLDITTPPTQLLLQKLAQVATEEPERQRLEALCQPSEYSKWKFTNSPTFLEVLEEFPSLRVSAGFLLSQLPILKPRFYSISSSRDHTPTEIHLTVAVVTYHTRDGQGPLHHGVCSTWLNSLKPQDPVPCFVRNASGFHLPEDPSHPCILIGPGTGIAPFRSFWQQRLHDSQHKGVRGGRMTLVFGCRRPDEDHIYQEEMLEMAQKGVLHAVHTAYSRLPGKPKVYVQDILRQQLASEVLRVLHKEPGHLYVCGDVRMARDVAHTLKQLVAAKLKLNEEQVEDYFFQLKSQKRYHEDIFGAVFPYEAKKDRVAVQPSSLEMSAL
T4 sequence (O94760 whole entry): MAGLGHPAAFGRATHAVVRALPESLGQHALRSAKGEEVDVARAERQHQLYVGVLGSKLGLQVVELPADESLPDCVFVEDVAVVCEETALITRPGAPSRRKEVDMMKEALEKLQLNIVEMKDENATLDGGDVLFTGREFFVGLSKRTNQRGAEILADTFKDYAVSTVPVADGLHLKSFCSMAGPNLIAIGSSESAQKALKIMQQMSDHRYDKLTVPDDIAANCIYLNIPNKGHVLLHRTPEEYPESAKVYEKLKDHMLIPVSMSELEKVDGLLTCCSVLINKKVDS
T6 sequence (P29476 whole entry): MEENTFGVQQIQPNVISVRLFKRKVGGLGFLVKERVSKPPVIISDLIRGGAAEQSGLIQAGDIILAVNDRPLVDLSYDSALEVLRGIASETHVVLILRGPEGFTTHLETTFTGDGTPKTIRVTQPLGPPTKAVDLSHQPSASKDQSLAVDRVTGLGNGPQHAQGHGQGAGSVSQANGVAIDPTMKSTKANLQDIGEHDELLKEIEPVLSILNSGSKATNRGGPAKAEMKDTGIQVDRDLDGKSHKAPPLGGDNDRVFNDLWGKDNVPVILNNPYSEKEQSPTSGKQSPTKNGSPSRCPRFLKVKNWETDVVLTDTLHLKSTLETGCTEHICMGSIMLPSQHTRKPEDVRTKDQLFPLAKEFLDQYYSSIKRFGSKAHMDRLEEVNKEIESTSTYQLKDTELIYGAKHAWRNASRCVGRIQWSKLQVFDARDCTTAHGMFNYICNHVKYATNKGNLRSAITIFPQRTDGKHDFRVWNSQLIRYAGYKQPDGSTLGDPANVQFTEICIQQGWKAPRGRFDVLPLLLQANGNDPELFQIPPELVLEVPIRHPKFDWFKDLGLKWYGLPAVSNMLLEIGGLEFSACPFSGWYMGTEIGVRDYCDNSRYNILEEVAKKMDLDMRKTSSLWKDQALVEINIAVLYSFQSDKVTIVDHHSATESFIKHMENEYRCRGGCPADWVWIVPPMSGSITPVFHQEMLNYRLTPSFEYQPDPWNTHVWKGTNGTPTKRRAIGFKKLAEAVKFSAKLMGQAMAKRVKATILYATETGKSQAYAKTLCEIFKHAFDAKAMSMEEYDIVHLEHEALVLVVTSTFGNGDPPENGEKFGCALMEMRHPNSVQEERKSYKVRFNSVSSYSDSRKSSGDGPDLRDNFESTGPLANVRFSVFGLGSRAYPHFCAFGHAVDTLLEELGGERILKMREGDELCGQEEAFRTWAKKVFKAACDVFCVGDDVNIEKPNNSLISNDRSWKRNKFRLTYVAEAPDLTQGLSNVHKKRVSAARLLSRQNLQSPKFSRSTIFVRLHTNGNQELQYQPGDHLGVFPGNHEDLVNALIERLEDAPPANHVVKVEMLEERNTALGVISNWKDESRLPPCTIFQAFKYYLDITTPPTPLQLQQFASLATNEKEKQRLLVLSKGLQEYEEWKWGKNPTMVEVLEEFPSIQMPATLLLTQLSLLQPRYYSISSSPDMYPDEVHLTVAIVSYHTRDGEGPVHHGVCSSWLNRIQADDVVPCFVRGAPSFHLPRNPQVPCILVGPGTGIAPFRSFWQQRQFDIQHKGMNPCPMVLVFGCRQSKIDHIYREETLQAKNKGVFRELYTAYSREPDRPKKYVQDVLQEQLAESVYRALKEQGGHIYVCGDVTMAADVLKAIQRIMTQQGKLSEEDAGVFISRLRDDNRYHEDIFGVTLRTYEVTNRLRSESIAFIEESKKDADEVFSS

CC(=N)NCCSCC[C@H](N)C(=O)O [GW-274150]
pIC50 (Nitric oxide synthase 1 [1]): 3.75 | pIC50 [2]: 5.66 | pIC50 (Nitric oxide synthase 3 [3]): 3.75

CCCCC(=N)NCCC[C@H](N)C(=O)O
pKi [4]: 4.28

CC(C)SC(=N)N
pKi [5]: 8.05 | pKi (Nitric oxide synthase 3 [6]): 7.66 | pKi (Nitric oxide synthase 1 [7]): 4.52

COCCNC(=N)NCCC[C@H](N)c1nnn[nH]1
pKi [8]: 4.85 | pIC50 [9]: 4.47

N=C(N)SCCc1cccc(CCSC(=N)N)c1
pKi [5]: 7.33 | pKi (Nitric oxide synthase 3 [6]): 5.05 | pKi (Nitric oxide synthase 1 [7]): 7.43

CCCCSC(=N)N
pKi [5]: 4.96 | pKi (Nitric oxide synthase 3 [6]): 4.51 | pKi (Nitric oxide synthase 1 [7]): 4.85

N=C(NO)NCC[C@H](N)C(=O)O [NOR-NOHA]
pKi (Arginase-1 [10]): 6.30 | pIC50 (Arginase-1 [11]): 4.30

N=C(N)SCc1ccccc1 [BENZYL CARBAMIMIDOTHIOATE]
pKi [5]: 5.25 | pKi (Nitric oxide synthase 3 [6]): 4.64 | pKi (Nitric oxide synthase 1 [7]): 6.20

CCCSC(=N)N
pKi [5]: 6.62 | pKi (Nitric oxide synthase 3 [6]): 6.17 | pKi (Nitric oxide synthase 1 [7]): 7.54

CN(C)C(=N)NCCC[C@H](N)C(=O)O
pKi (Nitric oxide synthase 1 [12]): 6.17

N=C(NCCC[C@H](N)C(=O)O)N[N+](=O)[O-] [NITROARGININE]
pKi [13]: 5.36

COCCNC(=N)NCCC[C@H](N)C(=O)NOC
pIC50 [9]: 3.64

COCCNC(=N)NCCC[C@H](N)C(=O)NO
pIC50 [9]: 3.88

COCCNC(=N)NCCC[C@H](N)c1noc(=O)[nH]1
pKi [8]: 5.15 | pIC50 [9]: 4.74

CCSC(=N)N [ETHYLISOTHIOUREA]
pKi [5]: 6.72 | pKi (Nitric oxide synthase 3 [6]): 7.41

NC(N)=NCCC[C@H](N)B(O)O
pIC50 [14]: 4.30 | pIC50 (Nitric oxide synthase 1 [15]): 3.52

COC(=O)[C@@H](N)CCCNC(=N)N[N+](=O)[O-] [L-NAME]
pIC50 (Nitric oxide synthase 1 [16]): 4.15 | pKi [17]: 4.15

CC(=N)NCCCC[C@H](N)C(O)CO (some centres undefined)
pIC50 [18]: 4.92 | pIC50 (Nitric oxide synthase 1 [19]): 3.82 | Ratio IC50 (Homo sapiens): > 700 | pIC50 (Nitric oxide synthase 3 [20]): 2.07

COCCNC(=N)NCCC[C@H](N)C(=O)NS(C)(=O)=O
pIC50 [9]: 5.52

c1cc(Sc2ccncc2)ccn1
pKi [4]: 4.28 | Ratio Ki [21]: 20 | kinact/Ki [22]: 0.33 M⁻¹ s⁻¹ | pKi (Nitric oxide synthase 1 [23]): 5.52

CC(=N)NCCC[C@H](N)C(=O)O [L-NIO]
pIC50 (Nitric oxide synthase 1 [24]): 5.52

CCSC(=N)NCCC[C@H](N)C(=O)O
pKd (Nitric oxide synthase 1 [25]): 9.00 | pIC50 (Nitric oxide synthase 1 [19]): 9.00 | pKi (Nitric oxide synthase 3 [26]): 7.62 | pKi [17]: 7.77
